# Data published in patent US5491170A, “β-carboxy sulfonamide ACAT inhibitors” (priority 1994, dated 1996).
# Columns and labels:
# male Sprague-Dawley rats = test: APCC: in vivo screen, total cholesterol in rats fed a high fat, high cholesterol diet; parameters: species or system rat (male Sprague-Dawley); settings: Rattus norvegicus, po, 16 h, 30 mg/kg by gavage, high cholesterol diet (5.5% peanut oil, 1.5% cholesterol, 0.5% cholic acid), dosed 4 PM, sacrificed 8 AM, read-out: APCC (% change TC): percent change in total cholesterol from control animals given vehicle and diet only
# Excerpt: In an in vivo screen designated APCC, male Sprague-Dawley rats (200-225 g body weight) were randomly divided into treatment groups and dosed at 4 PM with either vehicle (CMC/Tween) or suspensions of invention compounds in vehicle. The normal chow diet was then replaced with a high fat, high cholesterol diet (5.5% peanut oil, 1.5% cholesterol, and 0.5% cholic acid). The rats consumed this diet ad libitum during the night and were sacrificed at 8 AM to obtain blood samples for cholesterol analysis using standard procedures. Statistical differences between mean cholesterol values for the same vehicle were determined using analysis of variance followed by Fisher's least significant test. The results of this trial for representative compounds of the present invention also appear in Table I as the percent change in total cholesterol (% TC) from control animals given vehicle and diet only. All compounds in the APCC test reported in Table 1 were administered by gavage at 30 mg/kg.
# [1] = molecular target: T1, acyl-CoA: cholesterol acyltransferase (ACAT) (Rattus norvegicus, UniProt Q7TQM4); test: LAI: in vitro inhibition of ACAT (acylation of cholesterol by radiolabeled oleic acid) in rat liver microsomes; assay type: biochemical
# T1 construct: tissue preparation containing rat liver microsomes (designated LAI); from tissue; host or cells: rat liver microsomes
# T1 sequence (Q7TQM4 1-524): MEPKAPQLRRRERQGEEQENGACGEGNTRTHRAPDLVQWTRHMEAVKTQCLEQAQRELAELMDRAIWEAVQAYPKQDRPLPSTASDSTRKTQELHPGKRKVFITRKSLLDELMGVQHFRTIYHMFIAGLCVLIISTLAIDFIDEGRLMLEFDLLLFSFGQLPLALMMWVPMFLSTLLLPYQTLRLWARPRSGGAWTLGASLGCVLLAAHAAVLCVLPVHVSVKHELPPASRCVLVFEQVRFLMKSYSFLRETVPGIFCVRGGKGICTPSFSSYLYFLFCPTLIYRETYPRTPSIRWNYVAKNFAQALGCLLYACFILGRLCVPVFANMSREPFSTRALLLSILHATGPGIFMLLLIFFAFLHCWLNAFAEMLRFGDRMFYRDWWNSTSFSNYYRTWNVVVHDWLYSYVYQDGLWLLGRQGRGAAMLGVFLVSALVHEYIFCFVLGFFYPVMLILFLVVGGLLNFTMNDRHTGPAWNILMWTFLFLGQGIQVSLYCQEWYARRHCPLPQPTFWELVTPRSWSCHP
# Protocol: The ability of representative compounds of the present invention to inhibit ACAT was measured using an in vitro test more fully described in F. J. Field and R. G. Salone, Biochemica et Biophysica Acta, 712:557-570 (1982). The test assesses the ability of a test compound to inhibit the acylation of cholesterol by oleic acid by measuring the amount of radiolabeled cholesterol oleate formed from radiolabeled oleic acid in a tissue preparation containing rat liver microsomes (designated LAI).
IC50 [1],Compound,change in vivo at 30 mg/kg (male Sprague-Dawley rats)
–,"CC(C)c1cccc(C(C)C)c1NC(=O)CS(=O)(=O)Nc1c(C(C)C)cccc1C(C)C [Example 4, N-(2,6-Diisopropylphenyl)-2-(2,6-diisopropylphenylsulfamoyl)-acetamide]",-51%
> 1000 nM,"CC(C)c1cccc(C(C)C)c1NS(=O)(=O)CC(=O)O [Example 30, (2,6-Diisopropylphenylsulfamoyl)-acetic Acid]",3%
–,"CC(C)c1cc(C(C)C)c(OC(=O)CS(=O)(=O)Nc2c(C(C)C)cccc2C(C)C)c(C(C)C)c1 [Example 1, 2,4,6-Triisopropylphenyl(2,6-diisopropylphenylsulfamoyl)acetate]",-19%
7600 nM,"COc1cc(OC)c(NC(=O)CS(=O)(=O)Nc2c(OC)cc(OC)cc2OC)c(OC)c1 [Example 27, N-(2,4,6-trimethyoxyphenyl)-2-(2,4,6-trimethoxy-phenylsulfamoyl)-acetamide]",5%
> 1000 nM,"CCCCCCOC(=O)CS(=O)(=O)Nc1c(C(C)C)cccc1C(C)C [Example 26, (2,6-Diisopropylphenylsulfamoyl)-acetic Acid Hexyl Ester]",-5%
> 1000 nM,"COc1cc(OC)c(OC(=O)CS(=O)(=O)Nc2c(C(C)C)cccc2C(C)C)c(OC)c1 [Example 25, (2,6-Diisopropylphenylsulfamoyl)-acetic Acid 2,4,6-trimethoxyphenyl Ester]",-6%
> 1000 nM,"CC(C)c1cccc(C(C)C)c1NS(=O)(=O)CC(=O)NC(c1ccccc1)c1ccccc1 [Example 8, 2-(2,6-Diisopropylphenylsulfamoyl)-N-diphenylmethylacetamide]",–
> 1000 nM,"CCOC(=O)CS(=O)(=O)Nc1c(C(C)C)cccc1C(C)C [Example 21, (2,6-Diisopropylphenylsulfamoyl)-acetic Acid Ethyl Ester]",2%
230 nM,"CCCCCCCCCCCCSC(=O)CS(=O)(=O)Nc1ccc(F)cc1F [Example 16, (2,4-Diifluorophenylsulfamoyl)-thioacetic Acid S-dodecyl Ester]",-37%
–,"CCCCCCCCN(CCCCCCCC)C(=O)CS(=O)(=O)Nc1c(C(C)C)cccc1C(C)C [Example 3, 2-(2,6-Diisopropylphenylsulfamoyl)-N,N-dioctylacetamide]",-19%
–,"CCCCCCCCCCCCOC(=O)CS(=O)(=O)Nc1c(C(C)C)cccc1C(C)C [Example 29, (2,6-Diisopropylphenylsulfamoyl)-acetic Acid Dodecylester]",-34%
–,"CCCCCCCCCCCCSC(=O)CS(=O)(=O)Nc1c(C(C)C)cccc1C(C)C [Example 10, (2,6-Diisopropylphenylsulfamoyl)-thio-acetic Acid S-dodecyl Ester]",-71%
–,"CCCCCCCCCCCCC(C)OC(=O)CS(=O)(=O)Nc1c(C(C)C)cccc1C(C)C (centres unmarked) [Example 28, (2,6-Diisopropylphenylsulfamoyl)-acetic Acid 1-methyltridecyl Ester]",-39%
17600 nM,"CC(C)c1cccc(C(C)C)c1NS(=O)(=O)CC(=O)Oc1c(C(C)C)cccc1C(C)C [Example 22, 2,6,-Diissoproplphenyl(2,6-diisopropylphenylsulfamoyl)acetate]",-7%
–,"CCCCCCCCSC(=O)CS(=O)(=O)Nc1c(C(C)C)cccc1C(C)C [Example 11, (2,6-Diisopropylphenylsulfamoyl)-thio-acetic Acid S-octyl Ester]",-32%
> 1000 nM,"CC(C)c1cccc(C(C)C)c1NS(=O)(=O)CC(=O)NCC(c1ccccc1)C1CCCC1 (centres unmarked) [Example 9, 2-(2,6-Diisopropylphenylsulfamoyl)-N-(2-cyclopentyl-2-phenylethyl)-acetamide]",–
> 1000 nM,"CCCCCCCCOC(=O)CS(=O)(=O)Nc1c(C(C)C)cccc1C(C)C [Example 23, (2,6-Diisopropylphenylsulfamoyl)-acetic Acid Octyl Ester]",-4%
570 nM,"CCCCCCCCCCCCSC(=O)CS(=O)(=O)Nc1c(OC)cc(OC)cc1OC [Example 17, (2,4,6-Trimethoxyphenylsulfamoyl)-thioacetic Acid S-dodecyl Ester]",-3%
> 5000 nM,"CCCCCCCCCCCCCCCCCCSC(=O)CS(=O)(=O)Nc1c(C(C)C)cccc1C(C)C [Example 18, (2,6-Diisopropylphenylsulfamoyl)-thioacetic Acid S-octadecyl Ester]",-35%
4200 nM,"CC(CCc1ccccc1)COC(=O)CS(=O)(=O)Nc1c(C(C)C)cccc1C(C)C (centres unmarked) [Example 40, (2,6-diisopropylphenylsulfamoyl)-acetic acid, (2-methyl-4-phenylbutyl) ester]",-32%
1900 nM,"CCCCCCCCCCCCn1nnc(NC(=O)CS(=O)(=O)Nc2c(C(C)C)cccc2C(C)C)n1 [Example 2, 2-(2,6-Diisopropyl-phenylsulfamoyl)-N-(dodecyl-2-H-tetrazol-5-yl)-acetamide]",-50%
–,"CCCCCCCCCCCCNC(=O)CS(=O)(=O)Nc1c(C(C)C)cccc1C(C)C [Example 5, 2-(2,6-Diisopropylphenylsulfamoyl)-N-dodecyl-acetamide]",-29%
–,"CCCCCCCCCCCCCCOC(=O)CS(=O)(=O)Nc1c(C(C)C)cccc1C(C)C [Example 20, (2,6-Diisopropylphenylsulfamoyl)-acetic Acid Tetradecyl Ester]",-45%
> 5000 nM,"CCCCCCNC(=O)CS(=O)(=O)Nc1c(C(C)C)cccc1C(C)C [Example 6, 2-(2,6-Diisopropylphenylsulfamoyl)-N-hexyl-acetamide]",-16%
> 5000 nM,"CC(C)c1cccc(C(C)C)c1NS(=O)(=O)CC(=O)Sc1c(C(C)C)cccc1C(C)C [Example 12, (2,6-Diisopropylphenylsulfamoyl)-thioacetic Acid 2,6-Diisopropylphenyl Ester]",-16%
–,"CCCCCCCCCCCCCCSC(=O)CS(=O)(=O)Nc1c(C(C)C)cccc1C(C)C [Example 15, (2,6-Diisopropylphenylsulfamoyl)-thio-acetic Acid S-tetradecyl Ester]",-23%
> 1000 nM,"CCCCCCCCCCOC(=O)CS(=O)(=O)Nc1c(C(C)C)cccc1C(C)C [Example 24, (2,6-Diisopropylphenylsulfamoyl)-acetic Acid Decylester]",-16%
> 5000 nM,"Cc1cccc(C)c1SC(=O)CS(=O)(=O)Nc1c(C(C)C)cccc1C(C)C [Example 19, (2,6-Diisopropylphenylsulfamoyl)-thioacetic Acid S-2,6-dimethylphenyl Ester]",3%
> 1000 nM,"CC(C)c1cc(C(C)C)c(NS(=O)(=O)CC(=O)Oc2c(C(C)C)cccc2C(C)C)c(C(C)C)c1 [Example 31, (2,4,6-Triisopropylphenylsulfamoyl)-acetic Acid, 2,6-Diisopropyl Ester]",-29%
–,"CC(C)c1cccc(C(C)C)c1NS(=O)(=O)CC(=O)N(Cc1ccccc1)C(C)C [Example 7, N-Benzyl-N-isopropyl-2-(2,6-diisopropylphenylsulfamoyl)acetamide]",-31%
